These results are taken from patent publication US11976083B2, “Inhibitors of peptidylarginine deiminases” (Gilead Sciences, Inc., priority 2020, dated 2024).

This test addresses T1, human PAD4 (Homo sapiens, UniProt Q9UM07).
T1 construct: human PAD4 (NM_012387), A2-P663, was PCR amplified; His-SUMO (N, cleaved yes); made in house; host or cells: E. coli BL21(DE3)
The experiment in a line: In vitro PAD4 BAEE biochemical assay. The settings on record: BAEE substrate 3 mM, 5 nM PAD4, 2 mM calcium chloride; geometric mean of multiple experiments. A digest of the protocol:
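Recombinant human PAD4 (5 nM final) with 2 mM CaCl2 was preincubated with compound 30 min at 25 °C in MOPS buffer pH 7.6, then reacted with 3 mM BAEE for 2 h at 25 °C. After EDTA stop, released ammonia was detected by o-phthalaldehyde/DTT fluorescence (ex 405/em 535 nm); IC50 from four-parameter fit, geometric mean.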

T1 sequence (Q9UM07 2-663): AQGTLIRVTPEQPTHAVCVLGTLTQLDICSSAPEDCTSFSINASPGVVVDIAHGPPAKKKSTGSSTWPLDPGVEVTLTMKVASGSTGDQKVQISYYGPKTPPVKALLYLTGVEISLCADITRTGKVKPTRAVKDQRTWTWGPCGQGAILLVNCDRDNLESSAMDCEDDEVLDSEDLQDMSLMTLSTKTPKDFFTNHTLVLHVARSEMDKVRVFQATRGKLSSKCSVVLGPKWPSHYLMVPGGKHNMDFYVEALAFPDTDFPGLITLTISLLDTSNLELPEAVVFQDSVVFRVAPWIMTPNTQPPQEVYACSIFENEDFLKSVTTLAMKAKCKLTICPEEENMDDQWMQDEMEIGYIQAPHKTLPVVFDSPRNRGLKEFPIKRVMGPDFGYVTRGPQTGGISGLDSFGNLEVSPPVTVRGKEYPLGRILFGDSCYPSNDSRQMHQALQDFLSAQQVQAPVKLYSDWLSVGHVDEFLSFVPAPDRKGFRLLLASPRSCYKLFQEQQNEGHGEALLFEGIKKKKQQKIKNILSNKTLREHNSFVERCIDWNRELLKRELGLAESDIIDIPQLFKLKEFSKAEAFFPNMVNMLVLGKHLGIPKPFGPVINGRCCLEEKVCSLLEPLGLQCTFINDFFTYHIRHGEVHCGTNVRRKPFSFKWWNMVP

In the case of `COc1cc(C(=O)N2CC[C@@H](OC)[C@@H](N)C2)cc2nc(-c3cc4ccc5nc4n3CC(F)(F)CCC[C@]3(F)C[C@H]3C(=O)N[C@@H]5C)n(C)c12` [Example 702, (2~{R},5~{S},7~{S})-14-[5-[(3~{S},4~{R})-3-amino-4-methoxy-piperidine-1-carbonyl]-7-methoxy-1-methyl-benzimidazol-2-yl]-7,11,11-trifluoro-2-methyl-3,13,19-triazatetracyclo[11.5.2.0^ {5,7}.0^{16,20}]icosa-1(19),14,16(20),17-tetraen-4-one], the half-maximal inhibitory concentration (IC50) (as a rule, the concentration needed to halve the response being measured) was determined as 21 nM. As for `COc1cc(C(=O)N2CCC[C@@H](N)C2)cc2nc(-c3cc4ccc5nc4n3C[C@H]3C[C@H]3COC[C@@H](C)C(=O)N[C@@H]5C)n(C)c12` (single isomer, unassigned) [Example 312, (3˜{S},5˜{R},9˜{R},12˜{R})-18-[5-[(3˜{R})-3-aminopiperidine-1-carbonyl]-7-methoxy-1-methyl-benzimidazol-2-yl]-9,12-dimethyl-7-oxa-1,11,20-triazatetracyclo[11.5.2.0^{3,5}.0^{16,19}]icosa-13(20),14,16(19),17-tetraen-10-one], the IC50 is 56 nM.

On to `COc1cc(C(=O)N2[C@H]3CC[C@@H]2[C@H](N)C3)cc2nc(-c3cc4ccc5nc4n3CCCCCCC3(CC3)C(=O)N[C@@H]5C)n(C)c12` [Example 279, (11~{R})-17-[5-[(1~{R},2~{R},4~{S})-2-amino-7-azabicyclo[2.2.1]heptane-7-carbonyl]-7-methoxy-1-methyl-benzimidazol-2-yl]-11-methyl-spiro[1,10,19-triazatricyclo[10.5.2.0^{15,18}]nonadeca-12(19),13,15(18),16-tetraene-8,1′-cyclopropane]-9-one], for which the IC50 was determined as 82 nM.

For the compound `C[C@H]1NC(=O)[C@@H]2[C@@H](CCCCCn3c(-c4nc5cc(C(=O)N[C@H]6CNCC[C@@H]6F)c(F)cc5n4C)cc4ccc1nc43)C2(F)F` (single isomer, unassigned) [Example 382, 2-[(2˜{R},5˜{S},7˜{R})-6,6-difluoro-2-methyl-4-oxo-3,13,19-triazatetracyclo[11.5.2.0^{5,7}.0^{16,20}]icosa-1(19),14,16(20),17-tetraen-14-yl]-6-fluoro-˜{N}-[(3˜{S},4˜{S})-4-fluoro-3-piperidyl]-1-methyl-benzimidazole-5-carboxamide], the IC50 came out at 108 nM. For the compound `COc1cc(C(=O)N2CCC[C@@H](N)C2)cc2nc(-c3cc4ccc5nc4n3CCCCCCCCC(=O)N[C@@H]5C)n(C)c12` [Example 283, (12~{R})-18-[5-[(3~{R})-3-aminopiperidine-1-carbonyl]-7-methoxy-1-methyl-benzimidazol-2-yl]-12-methyl-1,11,20-triazatricyclo[11.5.2.0^{16,19}]icosa-13(20),14,16(19),17-tetraen-10-one], the IC50 was found to be 13 nM. In the case of `COc1cc(C(=O)N2CC[C@@H](OC(F)F)[C@@H](N)C2)cc2nc(-c3cc4ccc5nc4n3CC(F)(F)CCCC[C@@](C)(C(F)(F)F)C(=O)N[C@@H]5C)n(C)c12` [Example 730, (8~{R},11~{R})-17-[5-[(3~ {S},4~{R})-3-amino-4-(difluoromethoxy)piperidine-1-carbonyl]-7-methoxy-1-methyl-benzimidazol-2-yl]-3,3-difluoro-8,11-dimethyl-8-(trifluoromethyl)-1,10,19-triazatricyclo [10.5.2.0^{15,18}]nonadeca-12(19),13,15(18),16-tetraen-9-one] it was 270 nM; in that of `COc1cc(C(=O)N2CC[C@@H](OC(F)F)[C@@H](N)C2)cc2nc(-c3cc4ccc5nc4n3CCCCCC[C@](C)(C(F)(F)F)C(=O)N[C@@H]5C)n(C)c12` [Example 725, (8~{S},11~{R})-17-[5-[(3~ {S},4~{R})-3-amino-4-(difluoromethoxy)piperidine-1-carbonyl]-7-methoxy-1-methyl-benzimidazol-2-yl]-8,11-dimethyl-8-(trifluoromethyl)-1,10,19-triazatricyclo[10.5.2.0^ {15,18}]nonadeca-12(19),13,15(18),16-tetraen-9-one], 136 nM.
